# In ChEMBL document CHEMBL3102855, “Synthesis of long-chain fatty acid derivatives as a novel anti-Alzheimer's agent” (Bioorg Med Chem Lett, 2014):
# Activity calls are given as the source filed them. The calls are words filed in the database; no cut-off is given here.
# Test system: Cortical neurone
# Assay: Induction of dendrite extension in rat cortical neurons assessed as inhibition of amyloid beta (25 to 35)-induced neuronal degeneration at 1 uM after 4 days by fluorescence microscopic analysis
# Format: functional
row,SMILES,Activity
1,CCCCCCCCCC/C=C\C/C=C\CCCCCCCCCCCCCCCCCCCCCC(=O)O,Active
2,CCCCCCCCCCCCC/C=C\CCCCCCCCCCCCCCCCCCCCCC(=O)O,Active
3,CC/C=C\CCCCCCCCC/C=C\CCCCCCCCCCCCCCCCCCCCCC(=O)O,Active
4,CC/C=C\CCCCCCCCC/C=C\CCCCCCCC(=O)O,Active
5,CCCCCCCCCCCCCCCCC/C=C\CCCCCCCCCCCCCCCCCCCCCC(=O)O,Active
6,CCCCC/C=C\CCCCCC/C=C\CCCCCCCCCCCCCCCCCCCCCC(=O)O,Active
7,CCCCCCCCCCCCC/C=C\CCCCCCCCCCCCCCCCCCCCCCO,Active
8,CCCCCCCCCCCCCCCCCCCCCCCCCCCCCCCCCCCCC(=O)O,Active
9,CC/C=C\CCCCCCCCC/C=C\CCCCCCCCCCC(=O)O,Active
10,CCCCCCCCCCCCCCCCCCCCCC(=O)O,Active
11,CCCCCCCCCCCCC/C=C\CCCCCCCCCCCCCO,Active
12,CCCCCCCCCCCCCCCCCCCCCCCCCCCC(=O)O,Active
13,CC/C=C\CCCCCCCCC/C=C\CCCCCCCCCCCCCCCCCCCCCCCCCCCCCC(=O)O,Active
14,CC/C=C\CCCCCCCCC/C=C\CCC(=O)O,Active
15,CCCCCCC/C=C\CCCC/C=C\CCCCCCCCCCCCCCCCCCCCCC(=O)O,Active
16,CCCCCCCCCC/C=C\CCCCCCCCCC(=O)O,Active
17,CCCCCCCCCCCCC/C=C\CCCCCCCCCCCCC(=O)O,Active
